Consider one compound from patent US9012439B2, “Use of electrophilic compounds for inducing platelet production or maintaining platelet function” (University of Rochester, priority 2007, dated 2015).

One data set deals with C57BL/6 mice. The experiment in a line: Irradiation-induced thrombocytopenia (5 Gy total body irradiation). It counts as in vivo, mouse (C57BL/6). The protocol:
Seven or 8-week-old male C57BL/6 mice (Jackson Laboratories) were either exposed to 5 Gy cesium (Cs^137) total body irradiation (TBI) using a Model 8114 6000 Curie Shepherd Cs^137 irradiator (approximately 3200 Curie sealed Cs^137 source) with a dose rate of […] or left unexposed. Mice (n=4) received intravenous injections of vehicle (8% DMSO) or 15d-PGJ2 (1 mg/kg) or CDDO-Me (250 μg/kg) for 4 consecutive days from day 1 (days 1, 2, 3 and 4 post-irradiation). Blood was obtained from the aorta or the orbital sinus. Platelets were counted prior to radiation exposure and after radiation exposure on day 10, day 22, and day 31 in Example 7, or days 4, 10, 16, and 21 in Example 9 using the Heska® CBC-Diff™ Veterinary Analyzer (Fort Collins, Colo.). Data are expressed as average platelet counts from two separate experiments. For the unirradiated mice, platelets were counted on day 4, day 10, and day 15 in Example 7 or on the same days in Example 9.

The test system of another data set is Meg-01 cells. Put plainly: Platelet production from Meg-01 cells (flow cytometry). The data set is classed as cell-based, human. In general terms: Flow cytometry measures light scatter and fluorescence of single cells or particles in a stream.
The test system of another data set is Meg-01-derived platelets. Put plainly: Collagen-induced shape change of Meg-01-derived platelets. The following applies: platelets from Meg-01 cells treated 10 μM for 24 h; collagen 10 μg/mL, 15 min. It counts as cell-based, human. The protocol:
Platelets were isolated from the Meg-01 cells and human blood as described above. Both normal human platelets and Meg-01-derived platelets were stained with annexin V-FITC then treated with 10 μg/ml of collagen for 15 min. Cells were analyzed for collagen-induced annexin V binding and change in size and shape by flow cytometry. Platelets were isolated from primary human megakaryocytes and primary mouse megakaryocytes as described above. Primary human platelets were stained with CD41-FITC and primary mouse platelets were stained with CD61-PE then treated with 10 μg/mL of collagen. Cells were analyzed for collagen-induced CD61/CD41 upregulation and change in size and shape using flow cytometry.

The subject of data set [1] is mouse megakaryocyte progenitors (Meg-CFC). The experiment in a line: Megakaryocyte progenitor (Meg-CFC) assay on bone marrow of treated mice. It counts as in vivo. How it is done: Primary mouse bone marrow cells were suspended in IMDM at a concentration of 8×10^6 cells/mL. Two-hundred thousand cells were plated in IMDM supplemented with 20% BIT9500, 0.2% 2-mercaptoethanol, 2% Glutamax, and 20% Cellgro-H20 (Mediatech, Herndon, Va.) and cultured with rhTPO (50 ng/mL), IL-3 (10 ng/mL) (Preprotech, Rocky Hill, N.J.), IL-6 (20 ng/mL) (Preprotech), IL-11 (Preprotech) (50 ng/mL), and collagen at 37° for 7 days (Tober et al., “The Megakaryocyte Lineage Originates from Hemangioblast Precursors and is an Integral Component Both of Primitive and of Definitive Hematopoiesis,” Blood 109:1433-1441 (2007), which is hereby incorporated by reference in its entirety). Collagen gels were dehydrated, fixed, and labeled with GPIbβ and GPV, modified by ABC (Vector Labs, Burlingame, Calif.), and developed in Vector Red (Vector Labs). Meg-CFC were defined by their ability to generate colonies containing at least three megakaryocytes.

The mark [2] stands for this setting: mice injected 1 mg/kg for two consecutive days, 7 days of culture.

“Also recorded” adds a separate entry of the source.

Consider `CCCCCC=CC=C1C(=O)C=C[C@@H]1CC=CCCCC(=O)O` [15d-PGJ2, 15-deoxy-Δ^12,14 prostaglandin J2], for which the “weight versus vehicle-treated mice” value in the data set with C57BL/6 mice (1 mg/kg IV for 4 consecutive days) is reported as “no differences in weight”. Further, in the data set on C57BL/6 mice (5 Gy, 1 mg/kg IV days 1-4, by day 31), the platelet numbers result was “approximately 800,000 /μL”. Moreover, in the data set with C57BL/6 mice (5 Gy, 1 mg/kg IV days 1-4, day 22 and day 31), the “platelet recovery compared to vehicle mice” value was “accelerated platelet recovery”. Also, the “platelet-enhancing effect after PPARγ protein knock-down” value in the data set with Meg-01 cells (Meg-01 cells infected with PPARγ siRNA lentivirus, 15d-PGJ2 24 h) is “failed to attenuate the platelet-enhancing effects of 15d-PGJ2”. The platelet production entry with Meg-01 cells (Meg-01 cells, 10 μM, 24 h) is “increased platelet production; also recorded: enhanced Meg-01 platelet production”. Also, the “platelet production with increasing concentrations” value with Meg-01 cells (Meg-01 cells, increasing concentrations, 24 h) was “dose-dependent increase in platelet production”. Also, the “platelets that decreased their size and increased their granularity in response to collagen” value in the data set on Meg-01-derived platelets is on record as 68%. In data set [1], the megakaryocyte number entry was “failed to increase megakaryocyte number”. For the same compound, in data set [1] (setting [2]), the “megakaryocyte colony number (Meg-CFC)” value is on record as “did not influence megakaryocyte colony number or colony size”, the “megakaryocyte colony size (Meg-CFC)” value was “did not influence megakaryocyte colony number or colony size” and the “percentage of megakaryocytes producing proplatelets” value is “significantly augmented the percentage of megakaryocytes producing proplatelets”.
